Results: ChEMBL document CHEMBL1201862, “PubChem BioAssay data set” (2004)
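48-hour exposure; five concentrations; linearly interpolated endpoints. Abbreviation: GI50, concentration required for 50% inhibition of growth.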 Active and inactive are the calls of the source. No stated cut-off is given here; in the data, active = GI50 up to about 1.1 µM and inactive = higher.

Columns and labels:
Test in all cases: NCI-60 cell line screen, 48 h
SR = tested on: SR
HCT-15 = tested on: HCT-15
COLO 205 = tested on: COLO 205
SK-MEL-2 = tested on: SK-MEL-2
MCF7 = tested on: MCF7
HT-29 = tested on: HT-29
SF-295 = tested on: SF-295
EKVX = tested on: EKVX
HOP-92 = tested on: HOP-92
U-251 = tested on: U-251
CCRF-CEM = tested on: CCRF-CEM
A498 = tested on: A498
M14 = tested on: M14
SN12C = tested on: SN12C
M19-MEL = tested on: M19-MEL
KM-20L2 = tested on: KM-20L2
HOP-18 = tested on: HOP-18
Malme-3M = tested on: Malme-3M
XF498 = tested on: XF498
LXFL 529 = tested on: LXFL 529

SMILES | GI50 (SR) | GI50 (HCT-15) | GI50 (COLO 205) | GI50 (SK-MEL-2) | GI50 (MCF7) | GI50 (HT-29) | GI50 (SF-295) | GI50 (EKVX) | GI50 (HOP-92) | GI50 (U-251) | GI50 (CCRF-CEM) | GI50 (A498) | GI50 (M14) | GI50 (SN12C) | GI50 (M19-MEL) | GI50 (KM-20L2) | GI50 (HOP-18) | GI50 (Malme-3M) | GI50 (XF498) | GI50 (LXFL 529)
CCOC(=O)c1csc(NC(=O)CN2CCOCC2)n1 | > 100 µM (inactive) | > 100 µM | > 100 µM (inactive) | > 100 µM (inactive) | > 100 µM (inactive) | > 100 µM (inactive) | > 100 µM (inactive) | > 100 µM (inactive) | > 100 µM (inactive) | > 100 µM (inactive) | > 100 µM (inactive) | > 100 µM (inactive) | > 100 µM (inactive) | – | – | – | – | – | – | –
CCN(CC)CCNC(=O)C1COc2ccc(-c3cc(=O)c4ccccc4o3)cc2O1 (stereo not drawn) | – | 15.5 µM | 17.9 µM (inactive) | 19.8 µM (inactive) | 19.4 µM (inactive) | 14.9 µM (inactive) | 18.5 µM (inactive) | 26.7 µM (inactive) | 19.1 µM (inactive) | > 45.2 µM (inactive) | 19.1 µM (inactive) | 16 µM (inactive) | – | 19.1 µM (inactive) | 18.3 µM (inactive) | 17.5 µM (inactive) | 21 µM (inactive) | 16 µM (inactive) | 22.6 µM (inactive) | –
C=CCNC(=O)N(CCCC(NC(C)=O)C(=O)NCc1ccccc1)Cc1ccccc1 (stereo not drawn) | – | > 100 µM | > 100 µM (inactive) | > 100 µM (inactive) | – | > 100 µM (inactive) | > 100 µM (inactive) | > 100 µM (inactive) | 83 µM (inactive) | > 100 µM (inactive) | > 100 µM (inactive) | > 100 µM (inactive) | > 100 µM (inactive) | > 100 µM (inactive) | > 100 µM (inactive) | > 100 µM (inactive) | > 100 µM (inactive) | > 100 µM (inactive) | > 100 µM (inactive) | > 100 µM (inactive)
CC(C)C1N2CCCCC2[C@@H]2c3[nH]c4ccccc4c3CCN12 (stereo partly drawn) | – | > 100 µM | > 100 µM (inactive) | > 100 µM (inactive) | – | > 100 µM (inactive) | > 100 µM (inactive) | > 100 µM (inactive) | > 100 µM (inactive) | > 100 µM (inactive) | > 100 µM (inactive) | > 100 µM (inactive) | > 100 µM (inactive) | > 100 µM (inactive) | > 100 µM (inactive) | > 100 µM (inactive) | > 100 µM (inactive) | – | > 100 µM (inactive) | > 100 µM (inactive)
COc1cc2c(cc1OC)C(Cl)C(c1ccc(Cl)c(Cl)c1)=C2Cl (stereo not drawn) | – | 3.33 µM | 10.7 µM (inactive) | 6.84 µM (inactive) | – | 4.38 µM (inactive) | 9.82 µM (inactive) | 18 µM (inactive) | 4.15 µM (inactive) | 4.71 µM (inactive) | 3.02 µM (inactive) | 16.9 µM (inactive) | 9.4 µM (inactive) | 9.27 µM (inactive) | 9.02 µM (inactive) | 8.71 µM (inactive) | 12.9 µM (inactive) | 12.6 µM (inactive) | < 0.01 µM (active) | 5.15 µM (inactive)
COC(=O)/C=C(C)/C=C\COC1CCCCO1 (stereo not drawn) | > 100 µM (inactive) | > 100 µM | > 100 µM (inactive) | > 100 µM (inactive) | > 100 µM (inactive) | – | > 100 µM (inactive) | > 100 µM (inactive) | – | > 100 µM (inactive) | > 100 µM (inactive) | > 100 µM (inactive) | > 100 µM (inactive) | > 100 µM (inactive) | – | – | – | > 100 µM (inactive) | – | –
COc1ccc(C2SCC(=O)N2NC(=O)c2ccncc2)cc1F (stereo not drawn) | > 100 µM (inactive) | > 100 µM | > 100 µM (inactive) | > 100 µM (inactive) | – | > 100 µM (inactive) | > 100 µM (inactive) | – | > 100 µM (inactive) | > 100 µM (inactive) | – | > 100 µM (inactive) | > 100 µM (inactive) | > 100 µM (inactive) | – | > 100 µM (inactive) | 7.29 µM (inactive) | > 100 µM (inactive) | > 100 µM (inactive) | > 100 µM (inactive)
COc1cc(/C=N\O)cc(/C=N/O)c1O | 26.3 µM (inactive) | > 100 µM | 22.5 µM (inactive) | 25.8 µM (inactive) | 60.8 µM (inactive) | 39.4 µM (inactive) | 17.1 µM (inactive) | 60.3 µM (inactive) | 21.1 µM (inactive) | 37.9 µM (inactive) | 12.1 µM (inactive) | 43.8 µM (inactive) | 20 µM (inactive) | 31 µM (inactive) | – | – | – | 27.7 µM (inactive) | – | –
Nc1nc(SCc2ccc([N+](=O)[O-])cc2)nc2c1ncn2C1OC(COP(=O)(O)O)C(O)C1O (stereo not drawn) | > 100 µM (inactive) | > 100 µM | > 100 µM (inactive) | > 100 µM (inactive) | – | > 100 µM (inactive) | > 100 µM (inactive) | > 100 µM (inactive) | > 100 µM (inactive) | > 100 µM (inactive) | > 100 µM (inactive) | > 100 µM (inactive) | > 100 µM (inactive) | > 100 µM (inactive) | – | > 100 µM (inactive) | – | > 100 µM (inactive) | > 100 µM (inactive) | > 100 µM (inactive)
CCOC(=O)/C(O)=C1\C(=O)N(C)C(=O)C1c1cccc(OC)c1 (stereo not drawn) | – | > 100 µM | > 100 µM (inactive) | > 100 µM (inactive) | > 100 µM (inactive) | > 100 µM (inactive) | > 100 µM (inactive) | > 100 µM (inactive) | > 100 µM (inactive) | > 100 µM (inactive) | > 100 µM (inactive) | 95.3 µM (inactive) | – | > 100 µM (inactive) | > 100 µM (inactive) | > 100 µM (inactive) | > 100 µM (inactive) | > 100 µM (inactive) | > 100 µM (inactive) | –
COc1ccc(C2c3cc4c(cc3OC(O)(CO)C2C(=O)O)OCO4)cc1.COc1ccc(C2c3cc4c(cc3OC3(O)COC(=O)C23)OCO4)cc1 (stereo not drawn) | 19.2 µM (inactive) | 17.7 µM | 10.3 µM (inactive) | 25.9 µM (inactive) | – | 24.7 µM (inactive) | 22.8 µM (inactive) | 31.4 µM (inactive) | 21 µM (inactive) | 19.8 µM (inactive) | 18.7 µM (inactive) | 89.3 µM (inactive) | 15.3 µM (inactive) | 23.7 µM (inactive) | 4.6 µM (inactive) | 43.2 µM (inactive) | 50.4 µM (inactive) | 26.9 µM (inactive) | 0.536 µM (active) | 15.6 µM (inactive)
N#Cc1c(-c2ccc([N+](=O)[O-])cc2)cc(-c2ccc(Nc3ccnc4cc(C(F)(F)F)ccc34)cc2)nc1N | 1.79 µM (inactive) | 5.96 µM | 28.3 µM (inactive) | > 41.3 µM (inactive) | 2.59 µM (inactive) | 5.13 µM (inactive) | 15.9 µM (inactive) | 36.1 µM (inactive) | 20.8 µM (inactive) | 6.34 µM (inactive) | 1.88 µM (inactive) | > 48.3 µM (inactive) | 11.7 µM (inactive) | 17.9 µM (inactive) | – | – | – | 30.3 µM (inactive) | – | –
COC(=O)C12CCCN1CCC2 | > 100 µM (inactive) | > 100 µM | > 100 µM (inactive) | > 100 µM (inactive) | > 100 µM (inactive) | > 100 µM (inactive) | > 100 µM (inactive) | > 100 µM (inactive) | – | > 100 µM (inactive) | > 100 µM (inactive) | – | > 100 µM (inactive) | > 100 µM (inactive) | – | – | – | > 100 µM (inactive) | – | –
